Results as given in ChEMBL document CHEMBL5038649, “Chemical Space Expansion of Flavonoids: Induction of Mitotic Inhibition by Replacing Ring B with a 10π-Electron System, Benzo[b]thiophene” (J Nat Prod, 2022).
The source made the active and inactive calls. The rule behind the calls is not given here.

Key:
[1] = test system: MDA-MB-231; experiment: Cell cycle arrest in human MDA-MB-231 cells assessed as accumulation at G2/M phase incubated for 24 hrs by propidium iodide staining based flow cytometric analysis; assay type: functional
[2] = test system: MCF7; experiment: Antiproliferative activity against human MCF7 cells assessed as reduction in cell viability after 72 hrs by SRB assay; assay type: functional, cell-based; conditions: MCF7, 72 h
[3] = test system: MDA-MB-231; experiment: Antiproliferative activity against human MDA-MB-231 cells assessed as reduction in cell viability after 72 hrs by SRB assay; assay type: functional, cell-based; conditions: MDA-MB-231, 72 h
[4] = test system: A549; experiment: Antiproliferative activity against human A549 cells assessed as reduction in cell viability after 72 hrs by SRB assay; assay type: functional, cell-based; conditions: A549, 72 h
[5] = test system: KB; experiment: Antiproliferative activity against human KB cells assessed as reduction in cell viability after 72 hrs by SRB assay; assay type: functional, cell-based
[6] = Antiproliferative activity against human KB-VIN cells assessed as reduction in cell viability after 72 hrs by SRB assay; assay type: functional, cell-based; conditions: KBVIN
[7] = molecular target: Tubulin (Homo sapiens) (UniProt P68371+Q9H4B7+P0DPH7+P68366+Q13509+Q71U36+P04350+Q3ZCM7+P07437+P68363+Q9BQE3+Q6PEY2+Q13885+Q9BVA1+Q9BUF5); experiment: Induction of microtubule depolymerization in human MDA-MB-231 cells assessed as spindle formation incubated for 24 hrs by immunofluorescence staining based confocal microscopic analysis; assay type: cell-based

SMILES | Activity [1] | IC50 [2] [µM] | IC50 [3] [µM] | IC50 [4] [µM] | IC50 [5] [µM] | IC50 [6] [µM] | Activity [7]
O=C(/C=C/c1csc2ccccc12)c1c(O)ccc2ccccc12 | Dose-Dependent Effect | 0.89 | 0.8 | 0.58 | 0.64 | 0.48 | Active
COc1ccc(/C=C\c2cc(OC)c(OC)c(OC)c2)cc1O | Dose-Dependent Effect | – | – | – | – | – | Active
COc1cc2c(c(OC)c1OC)O/C(=C\c1csc3ccccc13)C2=O | Dose-Dependent Effect | 0.75 | 0.8 | 0.59 | 0.61 | 0.48 | inactive
COc1cc2occ(-c3csc4ccccc34)c(=O)c2c(OC)c1OC | Dose-Dependent Effect | 0.74 | 0.82 | 0.64 | 0.82 | 0.51 | inactive
COc1c(OC(C)C)cc2c(c1OC(C)C)C(=O)/C(=C/c1csc3ccccc13)O2 | – | > 10 | > 10 | > 10 | > 10 | > 10 | –
COc1ccc(O)c(/C=C/C(=O)c2csc3ccccc23)c1 | – | 5.9 | 5.4 | 4.7 | 5 | 4.4 | –
CCOc1cc2occ(-c3csc4ccccc34)c(=O)c2c(OCC)c1OC | – | 3.1 | 1 | 2.6 | 4.2 | 0.67 | –
CC(C)Oc1ccc(O)c(C(=O)/C=C/c2csc3ccccc23)c1 | – | 6.6 | 8.5 | 6.4 | 10 | 5.6 | –
COc1cc2occ(-c3csc4ccccc34)c(=O)c2c(OC)c1O | – | > 10 | > 10 | > 10 | > 10 | > 10 | –
COc1cc2occ(-c3csc4ccccc34)c(=O)c2cc1OC | – | > 10 | > 10 | > 10 | > 10 | > 10 | –
O=C(/C=C/c1ccccc1)c1c(O)ccc2ccccc12 | – | > 10 | > 10 | > 10 | > 10 | > 10 | –
O=C(/C=C/c1ccccc1)c1ccccc1 [CHALCONE] | – | > 10 | > 10 | > 10 | > 10 | > 10 | –
O=C(/C=C/c1cc2ccccc2s1)c1cc(Cl)cc(Cl)c1O | – | 9.9 | 7.5 | 6.9 | 7.8 | 5.8 | –
O=C(/C=C/c1ccc(Cl)cc1)c1csc2ccccc12 | – | 9.7 | 7.3 | 6.6 | 8.1 | 5.5 | –
Cc1ccc(O)c(C(=O)/C=C/c2csc3ccccc23)c1 | – | 7.8 | 6 | 4.8 | 4.9 | 4.3 | –
O=C(/C=C/c1csc2ccccc12)c1cc(Br)ccc1O | – | 1.04 | 0.84 | 0.66 | 0.76 | 0.47 | –
